# According to ChEMBL document CHEMBL3124779, “Discovery of ABT-267, a pan-genotypic inhibitor of HCV NS5A” (J Med Chem, 2014):
# Assays:
# Hepatitis C virus [1] = assay: Antiviral activity against HCV genotype 1 infected in human assessed as cure rate; format: functional, Hepacivirus hominis
# [2] = Half life in monkey at 1 mg/kg, iv; format: ADME, organism-based, Macaca mulatta; set-up: dose 1 mg/kg, route intravenous; conditions: rhesus monkey, in vivo
# Hepatitis C virus [3] = assay: Ratio of EC50 for HCV1a H77 infected in human HuH7 cells in presence of 40% human plasma to EC50 for HCV1a H77 infected in human HuH7 cells in absence of 40% human plasma; format: functional, Hepacivirus hominis, genotype 1a H77, Huh-7
# Hepatitis C virus [4] = assay: Antiviral activity against HCV1b Con1 infected in human HuH7 cells assessed as inhibition of viral replication after 4 days by luciferase reporter gene assay; format: functional, organism-based, Hepacivirus hominis; conditions: isolate Con1, Huh-7, 96 h
# [5] = Half life in dog at 2.5 mg/kg, po; format: ADME, organism-based, Canis lupus familiaris; set-up: dose 2.5 mg/kg, route oral; conditions: in vivo
# [6] = AUC in dog at 2.5 mg/kg, po; format: ADME, organism-based, Canis lupus familiaris; set-up: dose 2.5 mg/kg, route oral; conditions: plasma
# [7] = Cmax in rat at 3 mg/kg, po; format: ADME, organism-based; set-up: dose 3 mg/kg, route oral; conditions: in vivo
# [8] = Half life in rat at 3 mg/kg, iv; format: ADME, organism-based; set-up: dose 3 mg/kg, route intravenous; conditions: in vivo
# [9] = Metabolic stability in human liver microsomes assessed as compound remaining after 30 mins; format: ADME; conditions: read-out: Stability
# Hepatitis C virus [10] = assay: Ratio of EC50 for HCV1b Con1 infected in human HuH7 cells in presence of 40% human plasma to EC50 for HCV1b Con1 infected in human HuH7 cells in absence of 40% human plasma; format: functional, Hepacivirus hominis, isolate Con1, Huh-7
# [11] = Metabolic stability in rat liver microsomes assessed as compound remaining after 30 mins; format: ADME; conditions: read-out: Stability
# [12] = AUC in rat at 3 mg/kg, po; format: ADME, organism-based; set-up: dose 3 mg/kg, route oral; conditions: plasma
# [13] = Volume of distribution at steady state in dog at 1 mg/kg, iv; format: ADME, organism-based, Canis lupus familiaris; set-up: dose 1 mg/kg, route intravenous; conditions: in vivo, read-out: Vdss
# [14] = Oral bioavailability in dog at 2.5 mg/kg; format: ADME, organism-based, Canis lupus familiaris; conditions: in vivo
# [15] = Clearance in dog at 1 mg/kg, iv; format: ADME, organism-based, Canis lupus familiaris; set-up: dose 1 mg/kg, route intravenous; conditions: in vivo
# [16] = Half life in monkey at 2.5 mg/kg, po; format: ADME, organism-based, Macaca mulatta; set-up: dose 2.5 mg/kg, route oral; conditions: rhesus monkey, in vivo
# [17] = Volume of distribution at steady state in monkey at 1 mg/kg, iv; format: ADME, organism-based, Macaca mulatta; set-up: dose 1 mg/kg, route intravenous; conditions: rhesus monkey, in vivo, read-out: Vdss
# Hepatitis C virus [18] = assay: Antiviral activity against HCV1a H77 infected in human HuH7 cells assessed as inhibition of viral replication after 4 days by luciferase reporter gene assay; format: functional, organism-based, Hepacivirus hominis; conditions: genotype 1a H77, Huh-7, 96 h
# Hepatitis C virus [19] = assay: Antiviral activity against HCV1a H77 infected in human HuH7 cells assessed as inhibition of viral replication after 4 days by luciferase reporter gene assay in presence of 40% human plasma; format: functional, organism-based, Hepacivirus hominis; conditions: genotype 1a H77, Huh-7, Plasma, 96 h
# [20] = Volume of distribution at steady state in rat at 3 mg/kg, iv; format: ADME, organism-based; set-up: dose 3 mg/kg, route intravenous; conditions: in vivo, read-out: Vdss
# Hepatitis C virus [21] = assay: Antiviral activity against HCV1b Con1 infected in human HuH7 cells assessed as inhibition of viral replication after 4 days by luciferase reporter gene assay in presence of 40% human plasma; format: functional, organism-based, Hepacivirus hominis; conditions: isolate Con1, Huh-7, Plasma, 96 h
# [22] = Clearance in monkey at 1 mg/kg, iv; format: ADME, organism-based, Macaca mulatta; set-up: dose 1 mg/kg, route intravenous; conditions: rhesus monkey, in vivo
# [23] = AUC in monkey at 2.5 mg/kg, po; format: ADME, organism-based, Macaca mulatta; set-up: dose 2.5 mg/kg, route oral; conditions: rhesus monkey, plasma
# [24] = Half life in dog at 1 mg/kg, iv; format: ADME, organism-based, Canis lupus familiaris; set-up: dose 1 mg/kg, route intravenous; conditions: in vivo
# [25] = Cmax in monkey at 2.5 mg/kg, po; format: ADME, organism-based, Macaca mulatta; set-up: dose 2.5 mg/kg, route oral; conditions: rhesus monkey, in vivo
# [26] = Tmax in dog at 2.5 mg/kg, po; format: ADME, organism-based, Canis lupus familiaris; set-up: dose 2.5 mg/kg, route oral; conditions: in vivo
# [27] = Kinetic solubility of the compound in 10 mM of phosphate buffer at pH 7.2 by CLND method; format: physicochemical; conditions: read-out: Kinetic_solubility
# [28] = Oral bioavailability in monkey at 2.5 mg/kg; format: ADME, organism-based, Macaca mulatta; conditions: rhesus monkey, in vivo
# [29] = Cmax in dog at 2.5 mg/kg, po; format: ADME, organism-based, Canis lupus familiaris; set-up: dose 2.5 mg/kg, route oral; conditions: in vivo
# [30] = Clearance in rat at 3 mg/kg, iv; format: ADME, organism-based; set-up: dose 3 mg/kg, route intravenous; conditions: in vivo
# [31] = Oral bioavailability in rat at 3 mg/kg; format: ADME, organism-based; conditions: in vivo
# [32] = Half life in rat at 3 mg/kg, po; format: ADME, organism-based; set-up: dose 3 mg/kg, route oral; conditions: in vivo
# [33] = Tmax in monkey at 2.5 mg/kg, po; format: ADME, organism-based, Macaca mulatta; set-up: dose 2.5 mg/kg, route oral; conditions: rhesus monkey, in vivo
# [34] = Lipophilicity, log D of the compound at pH 7.4 by HPLC analysis; format: physicochemical; conditions: buffer
# [35] = Tmax in rat at 3 mg/kg, po; format: ADME, organism-based; set-up: dose 3 mg/kg, route oral; conditions: in vivo
half-life [2] [h],EC50 (Hepatitis C virus [4]) [nM],half-life [5] [h],AUC [6] [ng·h/mL],Cmax [7] [ng/mL],half-life [8] [h],remaining at 0.5 h [9] [%],remaining at 0.5 h [11] [%],AUC [12] [ng·h/mL],Vd [13] [L/kg],bioavailability [14] [%],clearance [15] [mL/min/kg],half-life [16] [h],Vd [17] [L/kg],EC50 (Hepatitis C virus [18]) [nM],EC50 (Hepatitis C virus [19]) [nM],Vd [20] [L/kg],SMILES,Activity (Hepatitis C virus [1]),Ratio EC50 (Hepatitis C virus [3]),Ratio EC50 (Hepatitis C virus [10]),other results
–,–,–,–,–,–,–,–,–,–,–,–,–,–,–,–,–,CCC[C@H](NC(=O)[C@@H]1[C@H]2CCC[C@H]2CN1C(=O)[C@@H](NC(=O)[C@@H](NC(=O)c1cnccn1)C1CCCCC1)C(C)(C)C)C(=O)C(=O)NC1CC1,<=75%,–,–,–
4.6,0.008,10.3,18300,960,7.5,54,69,10200,1.6,94,2.17,5.4,4.1,1.18,20.8,1,COC(=O)N[C@H](C(=O)N1CCC[C@H]1C(=O)Nc1ccc([C@H]2CC[C@H](c3ccc(NC(=O)[C@@H]4CCCN4C(=O)[C@@H](NC(=O)OC)C(C)(C)C)cc3)N2c2ccc(F)cc2)cc1)C(C)(C)C,–,18,20,EC50 (Hepatitis C virus [21]): 0.162 nM; clearance [22]: 15.5 mL/min/kg; AUC [23]: 490 ng·h/mL; half-life [24]: 9.1 h; Cmax [25]: 120 ng/mL; Tmax [26]: 2.7 h; solubility kinetic [27]: 3.9 µM; bioavailability [28]: 18%; Cmax [29]: 1070 ng/mL; clearance [30]: 1.67 mL/min/kg; bioavailability [31]: 39%; half-life [32]: 7 h; Tmax [33]: 1.7 h; logD [34]: 5.2; Tmax [35]: 2.3 h
0.8,0.042,2.2,1280,1380,3.3,38,38,6360,1.9,62,21.7,0.6,1.5,2.53,11.1,0.5,COC(=O)N[C@H](C(=O)N1CCC[C@H]1C(=O)Nc1ccc([C@H]2CC[C@H](c3ccc(NC(=O)[C@@H]4CCCN4C(=O)[C@@H](NC(=O)OC)C(C)C)cc3)N2c2ccc(F)cc2)cc1)C(C)C,–,4,5,EC50 (Hepatitis C virus [21]): 0.208 nM; clearance [22]: 51.7 mL/min/kg; AUC [23]: 80 ng·h/mL; half-life [24]: 2 h; Cmax [25]: 50 ng/mL; Tmax [26]: 1.2 h; solubility kinetic [27]: 6 µM; bioavailability [28]: 10%; Cmax [29]: 420 ng/mL; clearance [30]: 2.17 mL/min/kg; bioavailability [31]: 22%; half-life [32]: 2.8 h; Tmax [33]: 1.5 h; logD [34]: 4.6; Tmax [35]: 1.3 h
–,–,–,–,–,–,–,–,–,–,–,–,–,–,–,–,–,CC(C)(C)NC(=O)N[C@H](C(=O)N1C[C@H]2[C@@H]([C@H]1C(=O)NC(CC1CCC1)C(=O)C(N)=O)C2(C)C)C(C)(C)C (stereo not given in full) [BOCEPREVIR],<=75%,–,–,–
